# Tested on: Ruminal epithelium of sheep
# Test: Measurement of Ca-flux (45Ca2+ net flux) across ruminal epithelium in the Ussing chamber
# Assay type: cell-based
# Procedure: Measurement of Ca-Flux Across Ruminal Epithelium in the Ussing-Chamber
# Ruminal epithelium of sheep was mounted in a conventional Ussing chamber. Chambers contained 16 ml of serosal or mucosal buffer, which was circulated and gassed by a gas lift system (5% CO2/95% O2).
# In this experiment 24 chambers were divided into three groups. Group 1 (mucosal buffer containing 1.8 mM CaCl2), group 2 (mucosal buffer containing 3.6 mM CaCl2) and group 3 (containing 7.2 mM CaCl2). The same buffer was present on the serosal side of all chambers (Table 1). Each group (1,2,3) was again divided into two parts. One was defined as control group one as EO group. It is noted that the amounts correspond to a normal Ca^2+ concentration in the rumen (1.8 mM) (referred to as Comparative Example A) and to treated rumen corresponding to the administration of about 13 g Ca (3.6 mM) and 26 g Ca (7.2 mM) (referred to as Examples 1 and 2, respectively).
# After an equilibrating time of around 30 minutes ^45Ca^2+ (40 kBq per 16 ml chamber) was added to either to the mucosal or serosal “hot” side.
# Depending on the group 16 μl ethanol (Control) or 16 μl essential oil (EO) were added to the mucosal side of the chamber. The essential oil used is menthol, and the actual menthol concentration obtained is 50 μM.
# After 70 minutes the first sample from the “cold” side was taken, followed by five samples of each 900 μl which were taken in an interval of 30 minutes. The sample volume was replaced by an aliquot of the respective buffer. Radioactivity was measured using a β-counter (LKB Wallace-Perkin-Elmer, Überlingen, Germany).
# Epithelia were paired after sorting for transepithelial conductance (Gt) and the net calcium flux was calculated from the difference between mucosal to serosal flux and serosal to mucosal flux for paired epithelia.
# The net transport of calcium across the isolated ruminal epithelium was calculated by subtracting the calcium secretion (serosal to mucosal transport) from the calcium absorption (mucosal to serosal transport) reflecting the real absorption of calcium from the rumen to the blood side. For statistical analysis linear mixed effect models for repeated measures were calculated using mucosal calcium concentration and the addition of essential oils as fixed effects and animal as random effect (SAS System, method MIXED PROC). The effects of calcium concentration and the addition of essential oils was calculated as well as their interaction. Furthermore, the effect of sampling time was included to the model. Effects were evaluated for the repeated measures of the consecutive flux periods.
smiles,measurement,setting,value
CC1CCC(C(C)C)C(O)C1 (stereo not shown) [menthol],calcium flux compared to the control (in words),"all three Ca concentrations (1.8, 3.6, 7.2 mM), menthol present",increased
same,increase of calcium absorption by addition of EO,mucosal Ca 1.8 mM,6.06 nmol/cm^2/h
same,increase of calcium absorption by addition of EO,mucosal Ca 3.6 mM,2.52 nmol/cm^2/h
same,increase of calcium absorption by addition of EO,mucosal Ca 7.2 mM,8.22 nmol/cm^2/h
